Like-named read-outs stand apart in the source and are kept apart here.
How the values were obtained:
[1] = molecular target: T1, human serum albumin (HSA) (Homo sapiens, UniProt P02768); assay: HSA-ligand interaction by fluorescence spectroscopy (quenching, Stern-Volmer and Hyperquad fitting); format: binding; conditions: for Kd: decimal log ±SEM of K in L/mol, Hyperquad non-linear fitting, PBS pH 7.4; for Effect on HSA fluorescence signal at 340 nm / LogKSV (Stern-Volmer quenching constant): HSA 2 μM; for Effect on HSA fluorescence signal at 340 nm: metabolite 0-8 μM, λex 295 nm; for LogKSV (Stern-Volmer quenching constant): decimal log ±SEM of KSV in L/mol, PBS pH 7.4, λex 295 nm, λem 340 nm
T1 construct: purchased Sigma-Aldrich
Experimental: Albumin-ligand interactions were investigated employing a Hitachi F-4500 fluorimeter (Tokyo, Japan), measurements were performed in phosphate-buffered saline (PBS, pH 7.4), in the presence of air at room temperature. Absorption spectra of the flavonoid metabolites were also recorded in PBS, applying a HALO DB-20 UV-Vis spectrophotometer (Dynamica, London, UK). Because the inner filter effect can decrease the fluorescence emission signal of albumin, fluorescence spectra were corrected using the following equation [29, 30]:Icor = Iobs × e^(Aex^+ Aem^)/2(1) where Icor means the corrected and Iobs denotes the observed emission intensities at the wavelengths used, while Aex and Aem are the absorbance values of flavonoid metabolites at the excitation and emission wavelengths applied, respectively.
HSA-ligand interactions were evaluated using fluorescence quenching studies or the intrinsic fluoresce of the metabolite (if it strongly interfered with the emission signal of albumin). In quenching studies, the emission spectrum of HSA (2 μM) was recorded in the presence of increasing concentrations of microbial metabolites (0, 2, 3, 4, 5, 6, and 8 μM), using a 295 nm excitation wavelength. Data were evaluated based on linear and non-linear fitting, employing the Stern-Volmer equation (Equation (2)) and the Hyperquad2006 program package (Protonic Software; Leeds, UK), respectively. The Stern-Volmer equation was described as I0/I = 1 + KSV × [Q](2) where I0 and I denote the fluorescence emission intensities (λex = 295 nm, λem = 340 nm) of HSA in the absence and presence of colonic metabolites, respectively. Furthermore, KSV (unit: L/mol) and [Q] (unit: mol/L) are the Stern-Volmer quenching constant and the concentration of the quencher, respectively.
The fluorescence emission spectrum of 2H4MBA (2 μM) was recorded with HSA (0, 0.5, 1, 2, 3, 4 and 5 μM), using 295 nm excitation wavelength (the excitation maximum of 2H4MBA). The binding constants (K; unit: L/mol) of albumin-ligand complexes were determined by non-linear fitting using the Hyperquad2006 program, as has been reported. During this evaluation, absorbance values and fluorescence signals of both HSA and 2H4MBA were taken into account.

HSA Site II (naproxen) = molecular target: T2, HSA Site II (naproxen) (Homo sapiens, UniProt P02768); assay: Displacement of Site II marker naproxen from HSA by ultrafiltration; format: binding; conditions: naproxen 1 μM, HSA 1.5 μM, metabolite 20 μM
T2 construct: purchased Sigma-Aldrich
Excerpt: (§1) Then the concentrations of site markers in the filtrates were quantified by HPLC (see in 2.5).

CYP2C19 [2] = molecular target: T3, CYP2C19 (Homo sapiens, UniProt P33261); assay: CYP2C19-catalyzed S-mephenytoin hydroxylation (CypExpress 2C19 kit); format: in vitro ADME; conditions: CypExpress 2C19 kit (recombinant CYP2C19), probe S-mephenytoin, metabolite 20 μM, S-mephenytoin 5 μM
T3 construct: purchased Sigma-Aldrich
Excerpt: Effects of microbial metabolites on CYP2C19 enzyme were examined based on their impact on CYP2C19-catalyzed 4-hydroxymephenytoin formation, employing the previously reported method without modifications.
(§2) S-mephenytoin and 4-hydroxymephenytoin (CYP2C19 assay) as well as testosterone and 6β-hydroxytestosterone (CYP3A4 assay) were quantified by HPLC-UV employing the previously described methods without modifications.

HSA = conditions: cited from earlier work
[3] = set-up: method as in PMID 25168218; conditions: rat plasma, after Decalepis arayalpathra tuber extract; cited from earlier work
bovine serum albumin = conditions: cited from earlier work
[4] = cited from earlier work
CYP3A4 [5] = conditions: cited from earlier work
CYP2C9 [6] = conditions: cited from earlier work
CYP2C19 [7] = test system: CYP2C19; set-up: method as in PMID 24254844; conditions: cited from earlier work
CYP3A4 [8] = molecular target: T4, CYP3A4 (Homo sapiens, UniProt P08684); assay: CYP3A4-catalyzed testosterone hydroxylation (CypExpress 3A4 kit); format: in vitro ADME; conditions: CypExpress 3A4 kit (recombinant CYP3A4), probe testosterone, metabolite 20 μM, testosterone 5 μM, read-out: Inhibition of CYP3A4 (decrease in metabolite formation)
T4 construct: purchased Sigma-Aldrich
Experimental: Inhibitory action of flavonoid metabolites on CYP3A4 enzyme was tested based on their effects on CYP3A4-catalyzed testosterone hydroxylation, using the previously described method without modifications.
as §2

HSA Site I (warfarin) = molecular target: T5, HSA Site I (warfarin) (Homo sapiens, UniProt P02768); assay: Displacement of Site I marker warfarin from HSA by ultrafiltration; format: binding; conditions: warfarin 1 μM, HSA 5 μM, metabolite 20 μM
T5 construct: purchased Sigma-Aldrich
Excerpt: as §1

CYP2C9 [9] = molecular target: CYP2C9 (Homo sapiens, UniProt P11712); assay: CYP2C9-catalyzed diclofenac hydroxylation (CypExpress 2C9 kit)
Experimental: The inhibitory effects of colonic flavonoid metabolites were examined in vitro, applying CypExpress^TM Cytochrome P450 human kits.
Inhibition of CYP2C9 enzyme was examined based on CYP2C9-catalyzed 4′-hydroxydiclofenac formation in the presence of microbial metabolites, using the previously reported method with some modifications. […] The incubations were started with the addition of the enzyme. After 120 min incubation at 700 rpm and 30 °C in a thermomixer (Eppendorf, Hamburg, Germany), the reaction was stopped with the addition of 100 μL of ice-cold methanol. After centrifugation (10 min, 14,000 g, room temperature), the concentrations of diclofenac and 4′-hydroxydiclofenac were quantified with HPLC (see in 2.5).
The metabolite formation (% of control) was depicted vs. the concentrations of inhibitors in a decimal logarithmic scale, then IC50 values were determined employing the GraphPad Prism 8 software (San Diego, CA, USA).
Diclofenac and 4′-hydroxydiclofenac (CYP2C9 assay) were quantified by HPLC-UV as it was reported previously. […] The separation was carried out using a guard column (Phenomenex Security Guard C8, 4.0 × 3.0 mm) linked to an analytical column (Agilent Eclipse C8, 150 × 4.6 mm, 5 μm) at room temperature. […] Diclofenac and 4′-hydroxydiclofenac were detected at 275 nm.

[10] = read-out: LogK (binding constant of albumin-ligand complex) (converted)

T4 sequence (P08684 whole entry): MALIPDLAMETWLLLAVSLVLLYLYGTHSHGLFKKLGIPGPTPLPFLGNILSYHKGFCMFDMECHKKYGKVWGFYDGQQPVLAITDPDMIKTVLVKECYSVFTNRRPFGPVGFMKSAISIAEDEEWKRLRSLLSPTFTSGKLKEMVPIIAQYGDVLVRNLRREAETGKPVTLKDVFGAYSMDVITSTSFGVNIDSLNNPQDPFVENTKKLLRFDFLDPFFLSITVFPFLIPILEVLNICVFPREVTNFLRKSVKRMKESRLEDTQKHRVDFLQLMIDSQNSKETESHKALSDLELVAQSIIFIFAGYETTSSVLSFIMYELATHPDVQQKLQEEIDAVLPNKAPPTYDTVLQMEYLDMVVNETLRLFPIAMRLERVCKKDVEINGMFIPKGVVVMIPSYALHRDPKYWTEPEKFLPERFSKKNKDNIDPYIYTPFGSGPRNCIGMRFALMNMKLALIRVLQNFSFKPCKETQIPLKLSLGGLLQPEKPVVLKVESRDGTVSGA
T3 sequence (P33261 whole entry): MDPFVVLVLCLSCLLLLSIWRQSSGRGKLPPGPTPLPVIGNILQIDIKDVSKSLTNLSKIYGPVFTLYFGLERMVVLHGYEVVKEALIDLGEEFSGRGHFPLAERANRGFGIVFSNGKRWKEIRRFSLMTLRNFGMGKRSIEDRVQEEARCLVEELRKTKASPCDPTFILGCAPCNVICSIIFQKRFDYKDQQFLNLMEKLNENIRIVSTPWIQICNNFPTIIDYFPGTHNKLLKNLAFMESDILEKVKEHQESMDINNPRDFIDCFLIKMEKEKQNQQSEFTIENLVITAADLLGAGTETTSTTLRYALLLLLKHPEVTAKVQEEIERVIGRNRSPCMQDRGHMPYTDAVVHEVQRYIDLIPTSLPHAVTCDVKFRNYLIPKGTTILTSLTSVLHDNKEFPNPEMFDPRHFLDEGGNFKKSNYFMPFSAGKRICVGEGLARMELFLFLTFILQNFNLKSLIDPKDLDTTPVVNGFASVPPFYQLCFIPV
T1 sequence (P02768 25-609): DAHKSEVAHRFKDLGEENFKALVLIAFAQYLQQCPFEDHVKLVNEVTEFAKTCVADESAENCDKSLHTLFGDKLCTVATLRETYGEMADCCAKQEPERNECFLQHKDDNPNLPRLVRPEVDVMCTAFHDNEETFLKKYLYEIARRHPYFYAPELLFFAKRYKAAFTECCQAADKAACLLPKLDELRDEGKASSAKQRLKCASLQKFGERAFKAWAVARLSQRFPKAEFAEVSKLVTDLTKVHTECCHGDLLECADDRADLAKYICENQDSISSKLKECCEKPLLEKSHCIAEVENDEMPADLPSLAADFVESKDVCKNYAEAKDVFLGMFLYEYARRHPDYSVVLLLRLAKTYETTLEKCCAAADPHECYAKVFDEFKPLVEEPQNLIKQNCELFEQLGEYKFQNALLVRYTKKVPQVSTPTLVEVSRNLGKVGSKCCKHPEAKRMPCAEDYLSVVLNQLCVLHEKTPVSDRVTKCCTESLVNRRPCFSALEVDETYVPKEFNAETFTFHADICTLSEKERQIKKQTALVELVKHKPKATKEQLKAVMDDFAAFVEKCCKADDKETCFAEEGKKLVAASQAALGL
Sequence of CYP2C9 (Homo sapiens, UniProt P11712) (P11712 whole entry): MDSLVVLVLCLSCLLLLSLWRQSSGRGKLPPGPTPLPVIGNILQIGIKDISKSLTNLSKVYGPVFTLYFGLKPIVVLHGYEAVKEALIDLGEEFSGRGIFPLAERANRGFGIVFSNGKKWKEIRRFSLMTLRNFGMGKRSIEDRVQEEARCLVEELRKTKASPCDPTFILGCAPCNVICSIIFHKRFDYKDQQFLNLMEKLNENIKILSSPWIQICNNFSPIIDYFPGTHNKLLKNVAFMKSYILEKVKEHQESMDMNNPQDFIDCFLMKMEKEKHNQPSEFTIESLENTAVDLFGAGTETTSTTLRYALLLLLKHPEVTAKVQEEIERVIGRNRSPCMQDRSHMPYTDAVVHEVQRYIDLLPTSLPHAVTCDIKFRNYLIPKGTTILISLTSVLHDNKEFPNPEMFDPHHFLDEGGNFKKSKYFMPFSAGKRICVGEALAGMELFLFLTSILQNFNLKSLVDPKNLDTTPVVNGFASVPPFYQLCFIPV
T5 sequence (P02768 25-609): as the sequence (P02768 25-609) above
T2 sequence (P02768 25-609): as above

Structure (SMILES): COc1ccc(C(=O)O)c(O)c1 [2H4MBA, 2-hydroxy-4-methoxybenzoic acid]
- Kd [1, 10]: 7.24 µM
- Concentration of naproxen in the filtrate (HSA Site II (naproxen)): statistically significant (p < 0.05) but weak elevation
- inhibition at 20 μM (CYP2C19 [2]): < 30%
- logK of 2H4MBA-HSA complex (HSA; quenching study): 3.2
- Cmax [3]: 7.7 µM

Structure (SMILES): O=C(O)/C=C/c1cccc(O)c1 [3CA, 3-coumaric acid]
- Effect on HSA fluorescence signal at 340 nm [1]: significant decrease
- Kd [1, 10]: 72.4 µM
- LogKSV (Stern-Volmer quenching constant) [1]: 4.13 ± 0.02
- logK of 3CA-bovine serum albumin complex (bovine serum albumin): 4.1
- Concentration in the circulation [4]: low nanomolar concentrations

Structure (SMILES): COc1cc(CC(=O)O)ccc1O [3M4HPAA, 3-methoxy-4-hydroxyphenylacetic acid]
- logK toward bovine serum albumin (bovine serum albumin): 3.8

Structure (SMILES): O=C(O)/C=C/c1ccc(O)cc1 [4-coumaric acid]
- Effect on CYP3A4 enzyme (CYP3A4 [5]): did not influence

Structure (SMILES): COc1cc(C(=O)O)ccc1O [4-hydroxy-3-methoxy-benzoic acid]
- Cmax ([4]; healthy human volunteers, orally administered): 5.7 µM

Structure (SMILES): O=C(O)c1ccc(O)cc1 [4HBA, 4-hydroxybenzoic acid]
- logK of complex with HSA (HSA): no interaction
- Inhibition of CYP2C9 (CYP2C9 [6]): did not inhibit
- Inhibition of CYP2C19 (CYP2C19 [7]): did not inhibit
- Effect on CYP3A4 enzyme (CYP3A4 [5]): did not influence

Structure (SMILES): CC(=O)c1ccc(O)cc1O [24DHAP, 2,4-dihydroxyacetophenone]
- Effect on HSA fluorescence signal at 340 nm [1]: significant decrease
- Kd [1, 10]: 27.5 µM
- LogKSV (Stern-Volmer quenching constant) [1]: 4.39 ± 0.06
- inhibition at 20 μM (CYP3A4 [8]): < 30%

Structure (SMILES): O=C(O)c1ccc(O)cc1O [24DHBA, 2,4-dihydroxybenzoic acid]
- logK of complex with HSA (HSA): 3.2

Structure (SMILES): O=C(O)c1ccc(O)c(O)c1 [34DHBA, 3,4-dihydroxybenzoic acid]
- inhibition at 20 μM (CYP2C19 [2]): < 30%
- logK of complex with HSA (HSA): 3.1

Structure (SMILES): O=C(O)CCc1ccc(O)cc1 [34HPPA, 3-(4-hydroxyphenyl)propionic acid]
- Inhibition of CYP2C9 (CYP2C9 [6]): did not inhibit
- Inhibition of CYP2C19 (CYP2C19 [7]): did not inhibit
- Effect on CYP3A4 enzyme (CYP3A4 [5]): did not influence

Structure (SMILES): CC(C(=O)c1ccc(O)cc1O)c1ccc(O)cc1 (stereo not shown) [DESMA, 1-(2,4-dihydroxyphenyl)-2-(4-hydroxyphenyl)-1-propanone]
- Effect on HSA fluorescence signal at 340 nm [1]: significant decrease
- Kd [1, 10]: 8.32 µM
- LogKSV (Stern-Volmer quenching constant) [1]: 4.99 ± 0.01
- Concentration of warfarin in the filtrate (HSA Site I (warfarin)): significantly increased
- IC50 (CYP2C9 [9]): 6.6 µM
- α (IC50 of the inhibitor divided by the IC50 of the positive control) (CYP2C9 [9]; human, 120 min, pH 7.5): 5.00
- inhibition at 20 μM (CYP2C19 [2]): < 30%
- inhibition at 20 μM (CYP3A4 [8]): < 30%
- Plasma concentrations ([4]; after dietary intake or high consumption of soy products, low nanomolar upward): ≤ 0.5 µM
- Peak plasma concentration ([4]; after ingestion of 60 g baked soybean powder): 300−500 nM

Structure (SMILES): O=C(O)CNC(=O)c1ccccc1 [HIPA, hippuric acid]
- inhibition at 20 μM (CYP2C19 [2]): < 30%
- logK of complex with HSA (HSA): 3.8
- Inhibition of CYP2C9 (CYP2C9 [6]): inhibited only at very high concentrations (e.g., 100 μM)
- Inhibition of CYP3A4-catalyzed testosterone hydroxylation (CYP3A4 [5]; 1-100 μM range): did not show relevant inhibition
- Inhibition of CYP3A4-catalyzed testosterone hydroxylation (CYP3A4 [5]): considerable inhibition only above 50 μM concentrations

Structure (SMILES): Oc1cc(O)cc(O)c1 [PHLO, phloroglucinol]
- inhibition at 20 μM (CYP3A4 [8]): ~40%
- Peak plasma concentration ([4]; healthy human volunteers, oral 160 mg PHLO): approximately 5 μM

Structure (SMILES): Oc1cccc(O)c1O [PYR, pyrogallol]
- Effect on HSA fluorescence signal at 340 nm [1]: significant decrease
- Kd ([1]; LogK (binding constant of albumin-ligand complex)): 20.9 µM
- LogKSV (Stern-Volmer quenching constant) [1]: 4.64 ± 0.03
- Concentration of warfarin in the filtrate (HSA Site I (warfarin)): significantly increased
- logK of PYR-HSA complex (HSA): 4.5
- Peak plasma concentration ([4]; healthy humans, black tea extract 2650 mg, plasma not treated with sulfatase): approximately 7 μM

Structure (SMILES): Oc1cccc(O)c1 [RES, resorcinol]
- inhibition at 20 μM (CYP3A4 [8]): ~65%

Structure (SMILES): O=c1c(-c2ccc(O)cc2)coc2cc(O)ccc12 [daidzein]
- Inhibition of CYP2C9-catalyzed hydroxylation of diclofenac (CYP2C9 [6]): inhibits

— PMC7175153, “Testing the Pharmacokinetic Interactions of 24 Colonic Flavonoid Metabolites with Human Serum Albumin and Cytochrome P450 Enzymes” (Biomolecules, 2020)
